The text below walks through data of PubChem BioAssay (NCI).

“And” between values parts separate entries of the source, which are not always exact repeats. Equal entries are not always repeated.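 In this assay, cells in 96-well plates receive the compound at five concentrations for 48 hours. Endpoints are linearly interpolated between the surrounding concentrations. Abbreviation: GI50, concentration required for 50% inhibition of growth. TGI marks complete inhibition of growth.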 Where only a bound is given, the exact number is not on record here.

For this assay, the system named is MDA-MB-468 breast. The assay is described as follows: NCI tumour cell line growth inhibition, 48 h.

As to `CCOC(=O)C1=C(N)Oc2c(sc3c(C)cccc23)C1c1ccc(Cl)cc1` (centres undefined), the GI50 is 3110 nM and the TGI stood at 13400 nM.

For the compound `COc1cc(C(=O)NC2CCN(C)CC2)ccc1Nc1ncc2c(n1)N(C1CCCC1)CC(F)(F)C(=O)N2C`, the GI50 was below 10 nM and the TGI is below 42.7 nM. In the case of `Nc1ccccc1/C=N\Nc1ccccc1`, the GI50 is 79700 nM and the TGI is above 100000 nM. As to `C#CC[C@@H]1C[C@]2(C)[C@H]3CC[C@@H]4[C@H]5[C@H](C(=C)C)CC[C@]5(C(=O)O)CC[C@@]4(C)[C@]3(C)CC[C@H]2C(C)(C)[C@H]1O`, the GI50 is 2210 nM and the TGI was 5290 nM. On the same counts, the results for `CCCN(CCC)c1ccc(C=O)cc1` are 16400 nM and 53900 nM. On the same counts, the results for `COC1OCC(OS(=O)(=O)c2ccc(C)cc2)C(OC(=O)c2ccccc2)C1OC(=O)c1ccccc1` (centres undefined) are 2500 nM and above 100000 nM. Turning to `COc1ccc(C(=O)Nc2ncc(Cc3ccccc3Cl)s2)cc1`, the GI50 is 353 nM and the TGI is 33000 nM. Turning to `C(=N/Nc1ncnc2nc[nH]c12)/c1ccccn1`, the GI50 was 86.8 nM and the TGI was 441 nM. On the same counts, the results for `O=C(c1ccccc1)c1ccc(Cl)c([N+](=O)[O-])c1` are 2160 nM and 6460 nM. With `O=C1Nc2cc(Cl)ccc2Oc2cc(Oc3ccccc3)ccc21`, the GI50 is 1850 nM and the TGI is 8880 nM. With `N/C(=N\c1nc2c(Cl)cc(Cl)cc2s1)C(Cl)(Cl)Cl`, the GI50 is 2850 nM and the TGI is 12300 nM. Regarding `O=C(Nc1ncc(Cc2ccccc2)s1)c1ccc2c(c1)OCCO2`, the GI50 was 254 nM.

As to `C=C1C(=O)O[C@H]2[C@H]1CC/C(COC(=O)/C=C\C(=O)NCc1ccc(Cn3c(=O)sn(-c4ccc(OC)cc4)c3=O)cc1)=C\CC[C@@]1(C)O[C@@H]21`, the GI50 is 652 nM and the TGI was determined as 1520 nM. On the same counts, the results for `CCc1ccc(CCC(=O)Nc2ncc(Cc3cc(Cl)ccc3Cl)s2)o1` are 769 nM and 5970 nM. On the same counts, the results for `COc1ccc(-n2c(SCC(=O)Nc3ccc(-c4nc5ccccc5[nH]4)cc3)nc3ccccc3c2=O)cc1` are 1970 nM and 4630 nM. On the same counts, the results for `COc1cc(-c2cc(/C=C/C(=O)c3ccc4c(c3)OCO4)[nH]n2)cc(OC)c1OC` are 1400 nM and 2860 nM.

In the case of `COc1ccc(Nc2c3c4c(cccc4[nH]c2=O)C(=O)c2ccccc2-3)cc1`, the GI50 was 23.7 nM. With `CCOC(=O)c1ccc2c(c1)[n+](=O)c(C(=O)c1ccc3ccccc3c1)c(C(F)(F)F)n2[O-]`, the GI50 was 372 nM and the TGI is 1510 nM. For `CCCn1cc(C2=C(c3cn(C)c4ccccc34)C(=O)NC2=O)c2ccccc21`, the GI50 was 429 nM and the TGI turned out to be 11100 nM.

As for `O=C(CSc1nc2ccc([N+](=O)[O-])cc2[nH]1)Nc1cccc(Cl)c1`, the GI50 is 1590 nM and the TGI is 5890 nM.

As to `O=C(CCCCC(=O)N/N=C\c1ccccc1Cl)N/N=C\c1ccccc1Cl`, the GI50 is 1830 nM and the TGI was determined as 49500 nM. On to `Fc1ccc(-c2ncn(C3CCNCC3)c2-c2ccnc(Oc3ccccc3)n2)cc1`, for which the GI50 is 3690 nM and the TGI came to 12200 nM. Consider `Nc1ncnc2c1c(-c1cccc(OCc3ccccc3)c1)cn2C1CC(CN2CCCC2)C1` (centres undefined), for which the GI50 is 1380 nM and the TGI turned out to be 3140 nM.

`O=C(CCc1nnc(-c2c(Cl)cccc2Cl)o1)c1nc2ccccc2[nH]1`: the GI50 is 797 nM and the TGI stood at 12200 nM. As to `CS(=O)(=O)N1CCN(Cc2cc3nc(-c4cccc5[nH]ncc45)nc(N4CCOCC4)c3s2)CC1`, the GI50 was 55.3 nM and 123 nM; the TGI was 467 nM and 985 nM. As to `COc1ccccc1CNCCCN1C(=O)c2ccc3c4c(ccc(c24)C1=O)C(=O)N(CCCNCCCCNCCCCN)C3=O`, the GI50 was 280 nM and the TGI came to 1170 nM.

In the case of `O=C1Nc2ccccc2C1(c1ccc(O)c(F)c1)c1ccc(O)c(F)c1`, the GI50 is 290 nM and the TGI is 996 nM. Take `Cc1ccc(Cl)cc1Nc1nc(C(F)(F)F)ccc1C(=O)N/N=C/c1c(Cl)cccc1Cl`: the GI50 is 662 nM and the TGI was determined as 8470 nM. The like results for `O=C(/C=C/c1ccccn1)c1ccccc1O` were, in that order, 1610 nM and 3100 nM. On to `C=C1C(=O)O[C@H]2[C@H]1CC/C(C=Nc1ccc(C(F)(F)F)cc1N)=C\CC[C@@]1(C)O[C@@H]21`, for which the GI50 is 3490 nM and the TGI was 12600 nM. Regarding `CC(C)c1ccc2c(N=Nc3ccc(S(N)(=O)=O)cc3)c(O)[nH]c2c1`, the GI50 is 7760 nM and the TGI was above 25000 nM.

On to `Cn1cc(C2=C(c3c4n(c5ccccc35)CC(CN)C4)C(=O)NC2=O)c2ccccc21` (centres undefined), for which the GI50 was 2790 nM and the TGI came to 6170 nM. As to `Fc1ccc(CNc2c3ccccc3nc3ccccc23)cc1`, the GI50 was 1910 nM and the TGI turned out to be 4860 nM.

Consider `CCCCCCCCCCCC1=NC(C)(C)CN1CCO`, for which the GI50 is 3270 nM and the TGI turned out to be 12800 nM. The like results for `CC(C)(C)C(=O)OCOP(=O)(OCOC(=O)C(C)(C)C)C1CCCN(OC(=O)c2ccccc2)C1=O` (centres undefined) were, in that order, 1860 nM and 14100 nM. On the same counts, the results for `O=C1[C@H]2Cc3c([nH]c4ccccc34)[C@@H](c3ccc(Br)cc3)N2C(=O)CN1C1CCN(CC2CCCCC2)CC1` are 13200 nM and 27200 nM. On to `CCOCCc1c(O)nc(SC)[nH]c1=O`, for which the GI50 was above 100000 nM and the TGI was above 100000 nM. With `CN(C)c1ccc(/C=C(\C#N)c2cc3ccccc3n2C)cc1`, the GI50 was 69.4 nM and the TGI turned out to be 2110 nM.
